biological target: T1, wild type FGFR-4 (Homo sapiens, UniProt P22455); assay: FGFR-4 wild type assay at Km (Caliper electrophoretic mobility shift); type: biochemical; conditions: wild type FGFR-4, 400 uM ATP, 25 C, 90 minutes; read-out: INH-FGFR4
T1 construct: purchased Carna Biosciences, Inc
Description: Biochemical Activity Assessment In order to assess the activity of chemical compounds against the relevant kinase of interest, the Caliper LifeSciences electrophoretic mobility shift technology platform is utilized. Fluorescently labeled substrate peptide is incubated in the presence dosed levels of compounds, a set concentration of kinase and of ATP, so that a reflective proportion of the peptide is phosphorylated. At the end of the reaction, the mix of phosphorylated (product) and non-phosphorylated (substrate) peptides are passed through the microfluidic system of the Caliper LabChip® EZ Reader II, under an applied potential difference. The presence of the phosphate group on the product peptide provides a difference in mass and charge between the product peptide and the substrate peptide, resulting in a separation of the substrate and product pools in the sample. As the pools pass the LEDS within the instrument, these pools are detected and resolved as separate peaks. The ratio between these peaks therefore reflects the activity of the chemical matter at that concentration in that well, under those conditions.
FGFR-4 wild type assay at Km: In each well of a 384-well plate, 0.5 ng/ul of wild type FGFR-4 (Carna Biosciences, Inc.) was incubated in a total of 12.5 ul of buffer (100 mM HEPES pH 7.5, 0.015% Brij 35, 10 mM MgCl2, 1 mM DTT) with 1 uM CSKtide (5-FAM-KKKKEEIYFFFG-NH2) and 400 uM ATP at 25 C for 90 minutes in the presence or absence of a dosed concentration series of compound (1% DMSO final concentration). The reaction was stopped by the addition of 70 ul of Stop buffer (100 mM HEPES pH 7.5, 0.015% Brij 35, 35 mM EDTA and 0.2% of Coating Reagent 3 (Caliper Lifesciences)). The plate was then read on a Caliper LabChip® EZ Reader II (protocol settings: −1.9 psi, upstream voltage −700, downstream voltage −3000, post sample sip 35 s).

T1 sequence (P22455 22-802): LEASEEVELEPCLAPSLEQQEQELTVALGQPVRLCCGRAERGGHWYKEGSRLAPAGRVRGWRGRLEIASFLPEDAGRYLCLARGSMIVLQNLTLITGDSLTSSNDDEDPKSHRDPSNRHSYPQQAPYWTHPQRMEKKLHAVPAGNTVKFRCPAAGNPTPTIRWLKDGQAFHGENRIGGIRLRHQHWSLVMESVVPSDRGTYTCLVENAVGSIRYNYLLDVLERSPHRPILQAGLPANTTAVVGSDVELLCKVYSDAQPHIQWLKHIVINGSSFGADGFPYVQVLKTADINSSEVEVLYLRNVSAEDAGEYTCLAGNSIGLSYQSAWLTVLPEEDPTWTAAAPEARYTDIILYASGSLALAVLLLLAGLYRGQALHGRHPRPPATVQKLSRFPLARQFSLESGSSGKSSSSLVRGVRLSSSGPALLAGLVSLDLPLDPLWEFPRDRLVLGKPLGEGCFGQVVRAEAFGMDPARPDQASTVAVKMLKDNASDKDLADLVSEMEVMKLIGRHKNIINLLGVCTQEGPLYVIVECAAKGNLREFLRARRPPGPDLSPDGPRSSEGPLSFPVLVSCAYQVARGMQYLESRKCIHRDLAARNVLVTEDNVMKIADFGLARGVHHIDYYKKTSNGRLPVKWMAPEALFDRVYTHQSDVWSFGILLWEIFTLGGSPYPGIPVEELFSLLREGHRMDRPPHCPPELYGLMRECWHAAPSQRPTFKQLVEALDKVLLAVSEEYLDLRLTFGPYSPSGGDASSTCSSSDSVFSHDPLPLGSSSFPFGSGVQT

| SMILES | IC50 |
| --- | --- |
| C#CC(=O)N[C@H]1CCC[C@H]1Nc1ncc2cc(-c3c(F)ccc(OCC)c3Cl)ccc2n1 [Compound 6, N-((1S,2R)-2-((6-(2-chloro-3-ethoxy-6-fluorophenyl)quinazolin-2-yl)amino)cyclopentyl)propiolamide] | 100 to 1000 nM |
| C#CC(=O)N[C@H]1CCC[C@H]1Nc1ncc2cc(-c3cc(S(=O)(=O)N(C)C)ccc3C)ccc2n1 [Compound 18] | > 1000 nM |
| C=CC(=O)N[C@H]1CCC[C@H]1Nc1ncc2cc(-c3cc(C(=O)NC4CC4)ccc3C)ccc2n1 [Compound 9] | 100 to 1000 nM |
| C=CC(=O)N[C@H]1C[C@H](C(=O)N(C)C)C[C@H]1Nc1ncc2cc(-c3c(Cl)c(OC)cc(OC)c3Cl)ccc2n1 [Compound 82, (1R,3S,4R)-3-acrylamido-4-((6-(2,6-dichloro-3,5-dimethoxyphenyl)quinazolin-2-yl)amino)-N,N-dimethylcyclopentane-1-carboxamide] | > 1000 nM |
| C#CC(=O)N[C@H]1CCC[C@H]1Nc1ncc2cc(-c3c(Cl)c(OC)cc(OC)c3Cl)ccc2n1 [Compound 20] | < 10 nM |
| C=CC(=O)N[C@H]1CCOC[C@H]1Nc1ncc2cc(-c3c(Cl)c(OC)cc(OC)c3Cl)cc(Cl)c2n1 [Compound 67] | < 10 nM |
| C=CC(=O)N[C@@H]1CCNC[C@@H]1Nc1ncc2cc(-c3c(Cl)c(OC)cc(OC)c3Cl)ccc2n1 [Compound 39] | > 1000 nM |
| C#CC(=O)N[C@H]1CCCC[C@H]1Nc1cc2c(cn1)cc(-c1c(Cl)c(OC)cc(OC)c1Cl)c(=O)n2CC [Compound 68] | < 10 nM |
| C=CS(=O)(=O)N[C@H]1CCCC[C@H]1Nc1ncc2cc(-c3c(Cl)c(OC)cc(OC)c3Cl)ccc2n1 [Compound 66] | 10 to 100 nM |
| C#CC(=O)N[C@H]1CCCC[C@H]1Nc1ncc2cc(-c3c(Cl)c(OC)cc(OC)c3Cl)ccc2n1 [Compound 31] | < 10 nM |
| C#CC(=O)N[C@H]1CCC[C@H]1Nc1ncc2cc(-c3cc(C(=O)NCC)ccc3Cl)ccc2n1 [Compound 11] | 10 to 100 nM |
| C=CC(=O)N[C@@H]1CN(C(C)=O)C[C@@H]1Nc1ncc2cc(-c3c(Cl)c(OC)cc(OC)c3Cl)ccc2n1 [Compound 57] | 100 to 1000 nM |
| C=CC(=O)N[C@H]1C[C@@H](C(=O)N(C)C)C[C@H]1Nc1ncc2cc(-c3c(Cl)c(OC)cc(OC)c3Cl)ccc2n1 [Compound 81, (1 S,3S,4R)-3-acrylamido-4-((6-(2,6-dichloro-3,5-dimethoxyphenyl)quinazolin-2-yl)amino)-N,N-dimethylcyclopentanecarboxamide] | 10 to 100 nM |
| C#CC(=O)N[C@H]1Cc2ccccc2[C@H]1Nc1ncc2cc(-c3c(Cl)c(OC)cc(OC)c3Cl)ccc2n1 [Compound 65] | 100 to 1000 nM |
| C=CC(=O)N[C@H]1CC(=O)C[C@H]1Nc1ncc2cc(-c3c(Cl)c(OC)cc(OC)c3Cl)ccc2n1 [Compound 33] | 10 to 100 nM |
| C=CC(=O)N[C@H]1CCNC[C@H]1Nc1ncc2cc(-c3c(Cl)c(OC)cc(OC)c3Cl)ccc2n1 [Compound 38] | 100 to 1000 nM |
| C=CC(=O)NC1CCS(=O)(=O)CC1Nc1ncc2cc(-c3c(Cl)c(OC)cc(OC)c3Cl)ccc2n1 (stereo not drawn) [Compound 79] | 10 to 100 nM |
| C=CC(=O)NC1CN(C(C)=O)CCC1Nc1ncc2cc(-c3c(Cl)c(OC)cc(OC)c3Cl)ccc2n1 (stereo not drawn) [Compound 71] | 10 to 100 nM |
| C=CC(=O)N[C@H]1C[C@@H](C(=O)OC)C[C@H]1Nc1ncc2cc(-c3c(Cl)c(OC)cc(OC)c3Cl)ccc2n1 [Compound 73] | 10 to 100 nM |
| C=CC(=O)N[C@@H]1CC(C)(C)OC[C@@H]1Nc1ncc2cc(-c3c(Cl)c(OC)cc(OC)c3Cl)ccc2n1 [Compound 59] | 100 to 1000 nM |
| C#CC(=O)N[C@H]1CCC[C@H]1Nc1ncc2cc(-c3cc(C(=O)NOC)ccc3Cl)ccc2n1 [Compound 12] | < 10 nM |
| C=CC(=O)N[C@@H]1CCC[C@@H]1Nc1ncc2cc(-c3c(Cl)c(OC)cc(OC)c3Cl)ccc2n1 [Compound 23] | 100 to 1000 nM |
| C#CC(=O)N[C@H]1CCC[C@H]1Nc1ncc2cc(-c3cccnc3)ccc2n1 [Compound 1] | > 1000 nM |

| SMILES | IC50 |
| --- | --- |
| C#CC(=O)N[C@H]1CCC[C@H]1Nc1ncc2cc(-c3cc(C(N)=O)ccc3Cl)ccc2n1 [Compound 3] | 100 to 1000 nM |
| C=CC(=O)NC1CNCC1Nc1ncc2cc(-c3c(Cl)c(OC)cc(OC)c3Cl)ccc2n1 (stereo not drawn) [Compound 25] | 10 to 100 nM |
| C#CC(=O)N[C@H]1CCC[C@H]1Nc1ncc2cc(-c3cc(C(=O)NC4CC4)ccc3Cl)ccc2n1 [Compound 16] | 10 to 100 nM |
| C#CC(=O)N[C@H]1CCC[C@H]1Nc1ncc2cc(-c3c(F)ccc(OC)c3F)ccc2n1 [Compound 2, N-((1S,2R)-2-((6-(2,6-difluoro-3-methoxyphenyl)quinazolin-2-yl)amino)cyclopentyl)propiolamide] | 10 to 100 nM |
| C#CC(=O)N[C@H]1CCC[C@H]1Nc1ncc2cc(-c3cc(C(=O)NOC)c(F)cc3Cl)ccc2n1 [Compound 19] | 10 to 100 nM |
| C#CC(=O)N[C@H]1CCC[C@H]1Nc1ncc2cc(-c3c(Cl)c(OC)cc(OC)c3Cl)cc(OC)c2n1 [Compound 48] | < 10 nM |
| C=CC(=O)N[C@@H]1CCOC[C@@H]1Nc1ncc2cc(-c3c(Cl)c(OC)cc(OC)c3Cl)ccc2n1 [Compound 43] | 100 to 1000 nM |
| CCC(=O)N[C@H]1CCC[C@H]1Nc1ncc2cc(-c3cc(C(=O)NC4CC4)ccc3Cl)ccc2n1 [Compound 17] | > 1000 nM |
| C=CC(=O)N[C@@H]1CCC[C@H]1Nc1ncc2cc(-c3c(Cl)c(OC)cc(OC)c3Cl)ccc2n1 [Compound 21] | > 1000 nM |
| C#CC(=O)NC1CCC1Nc1ncc2cc(-c3c(Cl)c(OC)cc(OC)c3Cl)ccc2n1 (stereo not drawn) [Compound 14] | 10 to 100 nM |
| C=CC(=O)N[C@H]1CCCC[C@@H]1Nc1ncc2cc(-c3c(Cl)c(OC)cc(OC)c3Cl)ccc2n1 [Compound 36, N-((1S,2S)-2-((6-(2,6-dichloro-3,5-dimethoxyphenyl)quinazolin-2-yl)amino)cyclohexyl)acrylamide] | > 1000 nM |
| C=CC(=O)N[C@H]1C[C@H](C(=O)N(C)C)CC[C@H]1Nc1ncc2cc(-c3c(Cl)c(OC)cc(OC)c3Cl)ccc2n1 (racemic) [Compound 87] | 100 to 1000 nM |
| C=CC(=O)N[C@H]1CCC[C@@H]1Nc1ncc2cc(-c3c(Cl)c(OC)cc(OC)c3Cl)ccc2n1 [Compound 22] | 100 to 1000 nM |
| C=CC(=O)N[C@@H]1CCCC[C@H]1Nc1ncc2cc(-c3c(Cl)c(OC)cc(OC)c3Cl)ccc2n1 [Compound 37] | > 1000 nM |
| C=CC(=O)N[C@H]1C[C@@H](O)C[C@H]1Nc1ncc2cc(-c3c(Cl)c(OC)cc(OC)c3Cl)ccc2n1 [Compound 42] | 10 to 100 nM |
| C=CC(=O)N[C@H]1CCC[C@H]1Nc1ncc2cc(-c3c(Cl)c(OC)cc(OC)c3Cl)cc(Cl)c2n1 [Compound 53] | 10 to 100 nM |
| C#CC(=O)N[C@H]1CCC[C@H]1Nc1cc2c(cn1)cc(-c1c(Cl)c(OC)cc(OC)c1Cl)c(=O)n2C [Compound 49] | < 10 nM |
| C=CC(=O)N[C@H]1CC(C)(C)OC[C@H]1Nc1ncc2cc(-c3c(Cl)c(OC)cc(OC)c3Cl)ccc2n1 [Compound 60] | > 1000 nM |
| CC#CC(=O)N[C@H]1CCCC[C@H]1Nc1ncc2cc(-c3c(Cl)c(OC)cc(OC)c3Cl)ccc2n1 [Compound 47] | > 1000 nM |
| C#CC(=O)N[C@H]1CCC[C@H]1Nc1ncc2cc(-c3cc(OC)cc(C(=O)NCC)c3)ccc2n1 [Compound 10] | > 1000 nM |
| C=CC(=O)NC1CCC1Nc1ncc2cc(-c3c(Cl)c(OC)cc(OC)c3Cl)ccc2n1 (stereo not drawn) [Compound 15] | 100 to 1000 nM |
| C=CC(=O)N[C@@H]1CCCC[C@@H]1Nc1ncc2cc(-c3c(Cl)c(OC)cc(OC)c3Cl)ccc2n1 [Compound 35] | > 1000 nM |

— patent publication US10875837B2, “Inhibitors of the fibroblast growth factor receptor” (BLUEPRINT MEDICINES CORPORATION, priority 2013, dated 2020)
